# According to patent US8906416B2, “Xanthenedione derivatives for the treatment of pigmentation and skin ageing disorders” (Pierre Fabre Dermo-Cosmetique, priority 2010, dated 2014):
# How the values were obtained:
# [1] = reference products of the interpretation scale; cited from earlier work
# [2] = Antioxidant capacity by chemiluminescence (Photochem Analytik Jena); type: biochemical; conditions: superoxide anion trapping
# Description: This test is used to determine the antioxidant capacity of molecules. It is a method that generates free radicals by a photochemical signal. The intensity of the oxidation is 1000 times greater than those obtained under normal conditions.
# The detection is performed by chemiluminescence. It enables the evaluation of hydrosoluble and liposoluble antioxidant molecules or extracts.
# The results are expressed respectively in equivalent quantity of vitamin C or Trolox (6-hydroxy-2,5,7,8-tetramethylchroman-2-carboxylic acid). The sensitivity is of the order of the nanomole.
# The antioxidant activity studied in this test represents the capacity to specifically trap the superoxide anions by chemiluminescence.
# The quantified results are expressed in equivalent Trolox (standard), i.e. in “μg of product for 1 μg of Trolox”. This signifies that a quantity x of sample is required to obtain an activity equivalent to the activity detected for 1 μg of standard. It is an anti-oxidant power relative to a reference, which can be determined independently of the tested concentration.
# The superoxide radical: O2^o^− is generated by a photochemical reaction: L+hv(UV)+O2→L*O2→L^o^++O2^o^− • L*: luminol in the excited state L^o+: luminol radical Detection of the Signal:
# Part of the superoxide anions is quenched by anti-oxidants. The remaining free radicals are quantified by chemiluminescence. L^o^++O2^o^−→N2+[…]→AP^2−+hv(luminescence) AP*^2−: aminophthalate in the excited state
# B16-F10 cells = experiment: Melanin assay test in B16-F10 cells; type: cell-based, murine; conditions: for IC50: Mus musculus, B16-F10, 0.1 μM α-MSH stimulated, 72 hours treatment, read-out: Results activity B16-F10 IC50 (50% melanin synthesis inhibition); for Results activity B16-F10, percentage of activity on melanin synthesis: negative value indicates an inhibition
# Description: This involves a test of measuring the synthesis of melanin by colorimetric assay on a murine melanoma cell line: the B16-F10 line. This test enables the depigmenting power of active ingredients to be evaluated.
# The B16-F10 cells are cultured in 96-well plates in DMEM medium, supplemented with FCS (foetal calf serum), and incubated 24 hours at 37° C., 5% CO2. The cells are then stimulated with 0.1 μM α-MSH (to stimulate the synthesis of melanin, the stimulation observed is around 150%) and treated 72 hours with the active ingredients to be tested. Each concentration of active ingredient is tested at least in triplicate. The total melanin followed by the intracellular melanin dissolved in the lysis buffer are then assayed by absorbance reading at 405 nm. The total proteins are assayed in the lysate and the results are expressed in mg melanin/mg proteins. The percentage of activity is calculated as follows:
# [formula] A negative value indicates an inhibition, whereas a positive value indicates an induction of the synthesis of melanin. General Experimental Conditions: • Equipment: • CO2 cell incubator (Heraeus), Oven, Centrifuge (Heraeus), Laminar air flow fume hood, 96-well clear bottomed plates—Falcon, sterile cones—Treff Lab, Polylabo, Mithras LB940 (Berthold Technologies)-154/MIPA/003 Biological Equipment: • B16-F10 cell line between P10 and P20 (murine melanocytes) (ATCC, CRL-6475) • Reagents • DMEM without phenol red (GIBCOBRL, 31053-028), 200 mM Glutamax-I Supplement (GIBCOBRL, 35050-038), D-PBS (GIBCOBRL, 14190-094), Foetal calf serum (Invitrogen, 10270-098), Trypsine-EDTA (GIBCOBRL, 25300-054), NaOH (Sigma, S8045-500G), DMSO (Sigma, 471267-1L), Nle, Phe—Melanocyte Stimulating Hormone (Sigma, M-8764), Melanin (Sigma, M-0418), BCA-COPPER (SIGMA, B9643 AND C2284), BSA (SIGMA, P0914) B) Test for the Study of the Antioxidant Capacity by Chemiluminescence (Photochem Analytik Jena) Principle: […]
SMILES,μg of sample for 1 μg of Trolox [2],IC50 (B16-F10 cells) [µM],further results
O=C(O)CCCC[C@@H]1CCSS1 (racemic) [Lipoic acid],,,Activity (scale for interpreting the results) [1]: Nil; μg sample for 1 μg of Trolox (scale for interpreting the results) [1]: Negative
Cc1cc(C(C)(C)C)c(O)c(C(C)(C)C)c1 [BHT],,,Activity (scale for interpreting the results) [1]: Good; μg sample for 1 μg of Trolox (scale for interpreting the results) [1]: 3.01 to 50 μg sample for 1 μg of Trolox
N[C@@H](CS)C(=O)O [Cysteine],,,Activity (scale for interpreting the results) [1]: Medium; μg sample for 1 μg of Trolox (scale for interpreting the results) [1]: 50.1 to 1000 μg sample for 1 μg of Trolox
"COc1cc(C2C3=C(CC(C)(C)CC3=O)OC3=C2C(=O)CC(C)(C)C3)ccc1O [Example 1, 9-(4-hydroxy-3-methoxyphenyl)-3,3,6,6-tetramethyl-3,4,5,6,7,9-hexahydro-1H-xanthene-1,8(2H)-dione]",2.1 μg of sample for 1 μg of Trolox,50,
"CC1(C)CC(=O)C2=C(C1)OC1=C(C(=O)CC(C)(C)C1)C2c1ccc(O)c(O)c1 [Example 2, 9-(3,4-dihydroxyphenyl)-3,3,6,6-tetramethyl-3,4,5,6,7,9-hexahydro-1H-xanthene-1,8(2H)-dione]",0.03 μg of sample for 1 μg of Trolox,20,
"COc1cc(C2C3=C(CC(C)(C)CC3=O)OC3=C2C(=O)CC(C)(C)C3)cc(OC)c1O [Example 3, 9-(4-hydroxy-3,5-dimethoxyphenyl)-3,3,6,6-tetramethyl-3,4,5,6,7,9-hexahydro-1H-xanthene-1,8(2H)-dione]",0.72 μg of sample for 1 μg of Trolox,45,
"O=C1CC(c2ccccc2)CC2=C1C(c1ccc(O)c(O)c1)C1=C(CC(c3ccccc3)CC1=O)O2 (stereo not drawn) [Example 4, 9-(3,4-dihydroxyphenyl)-3,6-diphenyl-3,4,5,6,7,9-hexahydro-1H-xanthene-1,8(2H)-dione]",0.001 μg of sample for 1 μg of Trolox,7,
"CC1(C)CC(=O)C2=C(C1)OC1=C(C(=O)CC(C)(C)C1)C2c1cc(C(C)(C)C)c(O)c(C(C)(C)C)c1 [Example 5, 9-(3,5-di-tert-butyl-4-hydroxyphenyl)-3,3,6,6-tetramethyl-3,4,5,6,7,9-hexahydro-1H-xanthene-1,8(2H)-dione]",50 μg of sample for 1 μg of Trolox,2,
"COc1cc(C2C3=C(CC(c4ccccc4)CC3=O)OC3=C2C(=O)CC(c2ccccc2)C3)ccc1O (stereo not drawn) [Example 6, 9-(4-hydroxy-3-methoxyphenyl)-3,6-diphenyl-3,4,5,6,7,9-hexahydro-1H-xanthene-1,8(2H)-dione]",2.46 μg of sample for 1 μg of Trolox,6,
"CCCCC/C=C\C/C=C\CCCCCCCC(=O)Oc1ccc(C2C3=C(CC(C)(C)CC3=O)OC3=C2C(=O)CC(C)(C)C3)cc1OC [Example 7, (9Z,12Z)-2-methoxy-4-(3,3,6,6-tetramethyl-1,8-dioxo-2,3,4,5,6,7,8,9-octahydro-1H-xanthen-9-yl)phenyl octadeca-9,12-dienoate]",19.7 μg of sample for 1 μg of Trolox,,
"CC1(C)CC(=O)C2=C(C1)OC1=C(C(=O)CC(C)(C)C1)C2c1ccc(O)cc1 [Example 9, 9-(4-hydroxyphenyl)-3,3,6,6-tetramethyl-3,4,5,6,7,9-hexahydro-1H-xanthene-1,8(2H)-dione]",7.39 μg of sample for 1 μg of Trolox,37,
"Cc1cc(C2C3=C(CC(C)(C)CC3=O)OC3=C2C(=O)CC(C)(C)C3)cc(C)c1O [Example 10, 9-(4-hydroxy-3,5-dimethylphenyl)-3,3,6,6-tetramethyl-3,4,5,6,7,9-hexahydro-1H-xanthene-1,8(2H)-dione]",4.10 μg of sample for 1 μg of Trolox,,
"COc1cc(C2C3=C(CCCC3=O)OC3=C2C(=O)CCC3)ccc1O [Example 11, 9-(4-hydroxy-3-methoxyphenyl)-3,4,5,6,7,9-hexahydro-1H-xanthene-1,8(2H)-dione]",1.07 μg of sample for 1 μg of Trolox,,
"COc1cc(C2C3=C(CC(C(C)C)CC3=O)OC3=C2C(=O)CC(C(C)C)C3)ccc1O (stereo not drawn) [Example 12, 9-(4-hydroxy-3-methoxyphenyl)-3,6-diisopropyl-3,4,5,6,7,9-hexahydro-1H-xanthene-1,8(2H)-dione]",1.64 μg of sample for 1 μg of Trolox,16,
"COc1cc(C2C3=C(CC(c4ccc(OC)c(OC)c4)CC3=O)OC3=C2C(=O)CC(c2ccc(OC)c(OC)c2)C3)ccc1O (stereo not drawn) [Example 14, 3,6-bis(3,4-dimethoxyphenyl)-9-(4-hydroxy-3-methoxyphenyl)-3,4,5,6,7,9-hexahydro-1H-xanthene-1,8(2H)-dione]",2.27 μg of sample for 1 μg of Trolox,,
"CCOc1cc(C2C3=C(CC(C)(C)CC3=O)OC3=C2C(=O)CC(C)(C)C3)ccc1O [Example 15, 9-(3-ethoxy-4-hydroxyphenyl)-3,3,6,6-tetramethyl-3,4,5,6,7,9-hexahydro-1H-xanthene-1,8(2H)-dione]",1.79 μg of sample for 1 μg of Trolox,19,
"COc1cc(C2C3=C(CC(C)(C)CC3=O)OC3=C2C(=O)CC(C)(C)C3)cc(Cl)c1O [Example 16, 9-(3-chloro-4-hydroxy-5-methoxyphenyl)-3,3,6,6-tetramethyl-3,4,5,6,7,9-hexahydro-1H-xanthene-1,8(2H)-dione]",5.20 μg of sample for 1 μg of Trolox,,"Results activity B16-F10, percentage of activity on melanin synthesis (B16-F10 cells; 20 μM): −31% to 20 μM"
"COc1cc(C2C3=C(CC(C)(C)CC3=O)OC3=C2C(=O)CC(C)(C)C3)cc(Br)c1O [Example 17, 9-(3-bromo-4-hydroxy-5-methoxyphenyl)-3,3,6,6-tetramethyl-3,4,5,6,7,9-hexahydro-1H-xanthene-1,8(2H)-dione]",5.18 μg of sample for 1 μg of Trolox,,
"COc1cc(C2C3=C(CC(C)(C)CC3=O)OC3=C2C(=O)CC(C)(C)C3)cc(I)c1O [Example 18, 9-(4-hydroxy-3-iodo-5-methoxyphenyl)-3,3,6,6-tetramethyl-3,4,5,6,7,9-hexahydro-1H-xanthene-1,8(2H)-dione]",4.66 μg of sample for 1 μg of Trolox,,
"COc1cc(C2C3=C(CC(C)(C)CC3=O)OC3=C2C(=O)CC(C)(C)C3)cc(O)c1O [Example 19, 9-(3,4-dihydroxy-5-methoxyphenyl)-3,3,6,6-tetramethyl-3,4,5,6,7,9-hexahydro-1H-xanthene-1,8(2H)-dione]",0.02 μg of sample for 1 μg of Trolox,,"Results activity B16-F10, percentage of activity on melanin synthesis (B16-F10 cells; 10 μM): −22% to 10 μM"
"CC(=O)Oc1ccc(C2C3=C(CC(c4ccccc4)CC3=O)OC3=C2C(=O)CC(c2ccccc2)C3)cc1OC(C)=O (stereo not drawn) [Example 26, 4-(1,8-dioxo-3.6-diphenyl-2,3,4,5,6,7,8,9-octahydro-1H-xanthen-9-yl)-1,2-phenylene diacetate]",,,"Results activity B16-F10, percentage of activity on melanin synthesis (B16-F10 cells; 20 μM): −28% to 20 μM"
"CC(=O)Oc1ccc(C2C3=C(CC(C)(C)CC3=O)OC3=C2C(=O)CC(C)(C)C3)cc1OC(C)=O [Example 27, 4-(3,3,6,6-tetramethyl-1,8-dioxo-2,3,4,5,6,7,8,9-octahydro-1H-xanthen-9-yl)-1,2-phenylene diacetate]",0.096 μg of sample for 1 μg of Trolox,,
